Measured values published in paper PMC10033419, “Blocking NS3–NS4B interaction inhibits dengue virus in non-human primates” (Nature, 2023).
Values joined by “and” are separate entries in the source; they are usually repeats but may differ in a detail not shown here. Identical values can stand only once.

Assays:
DENV-2 RL strain = test: Day 3 viraemia model, high viral inoculum (10^6 PFU); format: in vivo, AG129 mice
DENV-2/16681 [1] = test: NHP DENV-2 study, anti-DENV IgM ELISA; design: species or system rhesus macaques (M. mulatta); conditions: rhesus monkey, in vivo
DENV-2/16681 [2] = test: NHP DENV-2 study, anti-DENV IgG ELISA; design: species or system rhesus macaques (M. mulatta); conditions: rhesus monkey, in vivo
[3] = tested on: unrelated DNA and RNA viruses; test: Panel of unrelated DNA and RNA viruses; format: cell-based
in vitro = conditions: dog
[4] = Study 1+2+3 compiled data, 2 mg/kg/d, individual animals, listed as 64281802-AAA, 2 mg/kg/day
[5] = Study 1+2+3 compiled data, 6 mg/kg/d, individual animals, listed as 64281802-AAA, 6 mg/kg/day
[6] = Study 1+2+3 compiled data, 20 mg/kg/d, individual animals, listed as 64281802-AAA, 20 mg/kg/day
[7] = Study 1+2+3 compiled data, 60 mg/kg/d, individual animals, listed as 64281802-AAA, 60 mg/kg/day
[8] = Study 1 - 160222, 2 mg/kg/d, individual animals, listed as 64281802-AAA
[9] = Study 1 - 160222, 6 mg/kg/d, individual animals, listed as 64281802-AAA
[10] = Study 1 - 160222, 60 mg/kg/d, individual animals, listed as 64281802-AAA
[11] = Study 2 - 160510, 0,6 mg/kg/d, individual animals, listed as 64281802-AAA
[12] = Study 2 - 160510, 2 mg/kg/d, individual animals, listed as 64281802-AAA
[13] = Study 2 - 160510, 6 mg/kg/d, individual animals, listed as 64281802-AAA
[14] = Study 2 - 160510, 20 mg/kg/d, individual animals, listed as 64281802-AAA
[15] = Study 3 - 170410, 0,2 mg/kg/d, first group of 8, individual animals, listed as 64281802-AAA
[16] = Study 3 - 170410, 0,2 mg/kg/d, second group of 8, individual animals, listed as 64281802-AAA
[17] = Study 3 - 170410, 0,6 mg/kg/d, individual animals, listed as 64281802-AAA
[18] = Study 3 - 170410, 20 mg/kg/d, individual animals

In the case of COc1cc(N[C@H](C(=O)c2c[nH]c3ccc(OC(F)(F)F)cc23)c2ccc(Cl)cc2OC)cc(S(C)(=O)=O)c1 [JNJ-1802], the “Log 10 (copy number)” value (DENV-2 RL strain; Study 1+2+3 compiled data, 0,6 mg/kg/d, individual animals, listed as 64281802-AAA) is reported as 2.59, the “Av Log 10 (average)” value (DENV-2 RL strain; Study 1+2+3 compiled data, 2 mg/kg/d, group average) is reported as 4.68 and the “Av Log 10 (Ave/Med: median)” value (DENV-2 RL strain; Study 1+2+3 compiled data, 2 mg/kg/d, group median) is reported as 4.60. For the same compound, the Copy number (DENV-2 RL strain; [4]) was 8.93E+05 and 4.00E+05 and 3.96E+05 and 1.24E+06 and 6.51E+05 and 1.32E+04 and 2.02E+05 and 2.06E+04, the “Log 10 (copy number)” value (DENV-2 RL strain; [4]) was 5.95 and 5.60 and 6.09 and 5.81 and 3.95 and the “Av Log 10 (average)” value (DENV-2 RL strain; Study 1+2+3 compiled data, 6 mg/kg/d, group average) was 4.33. For the same compound, the “Av Log 10 (Ave/Med: median)” value (DENV-2 RL strain; Study 1+2+3 compiled data, 6 mg/kg/d, group median) was 4.37, the Copy number (DENV-2 RL strain; [5]) was 5.85E+04 and 1.40E+05 and 1.03E+05 and 2.15E+04 and 1.94E+05 and 8.27E+04 and 1.06E+04 and 2.60E+04 and 9.12E+03 and 5.17E+03 and 3.62E+04 and 5.97E+03 and 3.93E+02 and the “Log 10 (copy number)” value (DENV-2 RL strain; [5]) was 4.77 and 5.15 and 5.01 and 4.33 and 5.29 and 4.92 and 4.03 and 4.41 and 3.96 and 3.71 and 4.56 and 4.11 and 3.78 and 2.59. For the same compound, the “Av Log 10 (average)” value (DENV-2 RL strain; Study 1+2+3 compiled data, 20 mg/kg/d, group average) was 2.70, the “Av Log 10 (Ave/Med: median)” value (DENV-2 RL strain; Study 1+2+3 compiled data, 20 mg/kg/d, group median) was 2.59 and the Copy number (DENV-2 RL strain; [6]) was 1.05E+04 and 3.93E+02. The “Log 10 (copy number)” value (DENV-2 RL strain; [6]) was 4.02 and 2.59, the “Av Log 10 (average)” value (DENV-2 RL strain; Study 1+2+3 compiled data, 60 mg/kg/d, group average) was 3.05 and the “Av Log 10 (Ave/Med: median)” value (DENV-2 RL strain; Study 1+2+3 compiled data, 60 mg/kg/d, group median) was 2.59. For the same compound, the Copy number (DENV-2 RL strain; [7]) was 3.93E+02 and 1.22E+04 and 1.55E+03 and 5.28E+03, the “Log 10 (copy number)” value (DENV-2 RL strain; [7]) was 2.59 and 4.09 and 3.19 and 3.72 and the “Av Log 10 (average)” value (DENV-2 RL strain; Study 1 - 160222, 2 mg/kg/d, group average) was 5.30. For the same compound, the “Av Log 10 (Ave/Med: median)” value (DENV-2 RL strain; Study 1 - 160222, 2 mg/kg/d, group median) was 5.60, the Copy number (DENV-2 RL strain; [8]) was 8.93E+05 and 4.00E+05 and 3.96E+05 and 1.24E+06 and 6.51E+05 and 1.32E+04 and 2.02E+05 and the “Log 10 (copy number)” value (DENV-2 RL strain; [8]) was 5.95 and 5.60 and 6.09 and 5.81 and 3.95 and 4.12 and 5.30. For the same compound, the “Av Log 10 (average)” value (DENV-2 RL strain; Study 1 - 160222, 6 mg/kg/d, group average) was 4.74, the “Av Log 10 (Ave/Med: median)” value (DENV-2 RL strain; Study 1 - 160222, 6 mg/kg/d, group median) was 4.84 and the Copy number (DENV-2 RL strain; [9]) was 5.85E+04 and 1.40E+05 and 1.03E+05 and 2.15E+04 and 1.94E+05 and 8.27E+04 and 1.06E+04 and 2.60E+04. The “Log 10 (copy number)” value (DENV-2 RL strain; [9]) was 4.77 and 5.15 and 5.01 and 4.33 and 5.29 and 4.92 and 4.03 and 4.41, the “Av Log 10 (average)” value (DENV-2 RL strain; Study 1 - 160222, 60 mg/kg/d, group average) was 3.05 and the “Av Log 10 (Ave/Med: median)” value (DENV-2 RL strain; Study 1 - 160222, 60 mg/kg/d, group median) was 2.59. For the same compound, the Copy number (DENV-2 RL strain; [10]) was 3.93E+02 and 1.22E+04 and 1.55E+03 and 5.28E+03, the “Log 10 (copy number)” value (DENV-2 RL strain; [10]) was 2.59 and 4.09 and 3.19 and 3.72 and the “Av Log 10 (average)” value (DENV-2 RL strain; Study 2 - 160510, 0,6 mg/kg/d, group average) was 4.52. The “Av Log 10 (Ave/Med: median)” value (DENV-2 RL strain; Study 2 - 160510, 0,6 mg/kg/d, group median) was 4.66, the Copy number (DENV-2 RL strain; [11]) was 3.02E+04 and 4.20E+05 and 7.57E+04 and 6.60E+04 and 3.93E+02 and 1.74E+04 and 1.01E+05 and 3.12E+04 and the “Log 10 (copy number)” value (DENV-2 RL strain; [11]) was 4.48 and 5.62 and 4.88 and 4.82 and 2.59 and 4.24 and 5.00 and 4.49. For the same compound, the “Av Log 10 (average)” value (DENV-2 RL strain; Study 2 - 160510, 2 mg/kg/d, group average) was 4.07, the “Av Log 10 (Ave/Med: median)” value (DENV-2 RL strain; Study 2 - 160510, 2 mg/kg/d, group median) was 4.30 and the Copy number (DENV-2 RL strain; [12]) was 2.06E+04 and 6.20E+04 and 1.87E+04 and 2.60E+04 and 3.93E+02 and 1.87E+05. For the same compound, the “Log 10 (copy number)” value (DENV-2 RL strain; [12]) was 4.31 and 4.28 and 4.79 and 4.27 and 4.41 and 2.59 and 5.27, the “Av Log 10 (average)” value (DENV-2 RL strain; Study 2 - 160510, 6 mg/kg/d, group average) was 3.78 and the “Av Log 10 (Ave/Med: median)” value (DENV-2 RL strain; Study 2 - 160510, 6 mg/kg/d, group median) was 3.87. For the same compound, the Copy number (DENV-2 RL strain; [13]) was 9.12E+03 and 5.17E+03 and 3.62E+04 and 5.97E+03 and 3.93E+02, the “Log 10 (copy number)” value (DENV-2 RL strain; [13]) was 3.96 and 3.71 and 4.56 and 4.11 and 3.78 and 2.59 and the “Av Log 10 (average)” value (DENV-2 RL strain; Study 2 - 160510, 20 mg/kg/d, group average) was 2.83. The “Av Log 10 (Ave/Med: median)” value (DENV-2 RL strain; Study 2 - 160510, 20 mg/kg/d, group median) was 2.59, the Copy number (DENV-2 RL strain; [14]) was 1.05E+04 and 3.93E+02 and the “Log 10 (copy number)” value (DENV-2 RL strain; [14]) was 4.02 and 2.59. The “Av Log 10 (average)” value (DENV-2 RL strain; Study 3 - 170410, 0,2 mg/kg/d, first group of 8, group average) was 6.01, the “Av Log 10 (Ave/Med: median)” value (DENV-2 RL strain; Study 3 - 170410, 0,2 mg/kg/d, first group of 8, group median) was 6.07 and the Copy number (DENV-2 RL strain; [15]) was 1.86E+06 and 1.20E+06 and 1.13E+06 and 8.80E+05 and 2.24E+05 and 2.37E+06. The “Log 10 (copy number)” value (DENV-2 RL strain; [15]) was 6.27 and 6.08 and 6.05 and 5.94 and 5.35 and 6.38, the “Av Log 10 (average)” value (DENV-2 RL strain; Study 3 - 170410, 0,2 mg/kg/d, second group of 8, group average) was 5.85 and the “Av Log 10 (Ave/Med: median)” value (DENV-2 RL strain; Study 3 - 170410, 0,2 mg/kg/d, second group of 8, group median) was 6.03. For the same compound, the Copy number (DENV-2 RL strain; [16]) was 1.58E+06 and 7.37E+04 and 5.97E+06 and 8.67E+05 and 1.42E+06 and 1.06E+06 and 9.43E+04, the “Log 10 (copy number)” value (DENV-2 RL strain; [16]) was 6.20 and 4.87 and 6.78 and 5.94 and 6.15 and 6.03 and 4.97 and the “Av Log 10 (average)” value (DENV-2 RL strain; Study 3 - 170410, 0,6 mg/kg/d, group average) was 3.92. The “Av Log 10 (Ave/Med: median)” value (DENV-2 RL strain; Study 3 - 170410, 0,6 mg/kg/d, group median) was 4.48, the Copy number (DENV-2 RL strain; [17]) was 3.45E+04 and 2.62E+04 and 3.90E+04 and 3.93E+02 and the “Log 10 (copy number)” value (DENV-2 RL strain; [17]) was 5.16 and 4.86 and 4.54 and 4.42 and 4.59 and 2.59. The “Av Log 10 (average)” value (DENV-2 RL strain; Study 3 - 170410, 20 mg/kg/d, group average) was 2.59, the “Av Log 10 (Ave/Med: median)” value (DENV-2 RL strain; Study 3 - 170410, 20 mg/kg/d, group median) was 2.59 and the Copy number (DENV-2 RL strain; [18]) was 3.93E+02. The “Log 10 (copy number)” value (DENV-2 RL strain; [18]) was 2.59, the Copy number (DENV-2 RL strain; mouse, in vivo, 6 mg/kg/day) was 1.28E+04 and the “IgG and IgM seroconversion” value (DENV-2/16681 [1]) was “occurred in all of the animals”. The IgM seroconversion (DENV-2/16681 [1]) was “occurred at later timepoints”, the “animals with detectable anti-DENV IgM” value (DENV-2/16681 [1]) was “one out of three” and the IgG seroconversion (DENV-2/16681 [2]) was “observed at later timepoints”. The “animals with detectable anti-DENV IgG” value (DENV-2/16681 [2]) was “none of the animals”, the “activity against unrelated DNA and RNA viruses” value [3] was “inactive” and the CC90 (in vitro) was 5.38 µM. The CC50 (in vitro; CC50) was 2600 nM and the CC50 (in vitro; CC50, Mean) was 2630 nM.
